Read-outs that look alike come from different tables or passages of the source.
Tests used:
[1] = tested on: P. aeruginosa; settings: P. aeruginosa MMX 103 (ATCC 27853); cited from earlier work
[2] = tested on: E. faecalis; test: Broth microdilution MIC (Example 5); assay type: cell-based, Enterococcus faecalis; settings: Enterococcus faecalis, VRE
Protocol: (§1) Test and Comparator Agents: The test agents were stored at room temperature until assayed. […] The stock solutions were allowed to stand for at least 1 hr prior to use to auto-sterilize.
(§2) TestMedia: Test media were prepared and stored in accordance with guidelines from CLSI (4, 6, 7).
(§3) Broth Microdilution MC Testing (Aerobic Bacteria and Yeast): The broth microdilution assay method employed for the susceptibility testing of aerobic bacteria (excluding N. gonorrhoeae which was evaluated by agar dilution) and yeast essentially followed the procedures described by CLSI (3, 4, 7, 8) and employed automated liquid handlers to conduct serial dilutions and liquid transfers. […] These would become the ‘mother plates’ from which ‘daughter’ or test plates would be prepared. The drugs (300 μL at 40× the desired top concentration in the test plates) were dispensed into the appropriate well in Column 1 of the mother plates. The Biomek 2000 was used to make serial two-fold dilutions through Column 11 in the “mother plate”. The wells of Column 12 contained no drug and ultimately served as the organism growth control wells.
(§4) The daughter plates were prepared using the Biomek FX which transferred 5 μL of drug solution from each well of a mother plate to the corresponding well of the correct daughter plate in a single step.
(§5) A standardized inoculum of each organism was prepared per CLSI methods (3, 7). Isolated colonies of each test isolate were picked from the primary plate and a suspension was prepared to equal a 0.5 McFarland turbidity standard. Standardized suspensions were then diluted […] (1:100 for yeast, 1:20 for bacteria). After dilution, the inoculum suspensions were then transferred to compartments of sterile reservoirs divided by length (Beckman Coulter), and the Biomek 2000 was used to inoculate all plates. Daughter plates were placed on the Biomek 2000 in reverse orientation so that plates were inoculated from low to high drug concentration.
(§6) The Biomek 2000 delivered 10 μL of standardized inoculum into each well of the appropriate daughter plate for an additional 1:20 dilution.
(§7) Plates were stacked 4 high, covered with a lid on the top plate, placed into plastic bags, and incubated at 35° C. for approximately 24-48 hr for all yeast isolates and 16-24 hr for aerobic bacteria. Plates were viewed from the bottom using a plate viewer. […] MIC endpoints for the test agents and control compounds were read per CLSI criteria (3, 7).

[3] = tested on: enterococci; test: MIC summary, enterococci (Example 5); assay type: cell-based, E. faecalis and E. faecium; settings: Enterococcus, VRE (Table 5), read-out: MIC values across isolates
Protocol: (§8) Test and Comparator Agents: The test agents were stored at room temperature until assayed. All test agents were suspended and diluted in 100% dimethylsulfoxide (DMSO), and were ultimately tested at a final concentration of 0.06-64 μg/mL. The stock solutions were allowed to stand for at least 1 hr prior to use to auto-sterilize.
(§9) TestMedia: Test media were prepared and stored in accordance with guidelines from CLSI (4, 6, 7). […] Neisseria gonorrhoeae were evaluated by agar dilution using agar consisting of GC medium base (BD; Lot No. 4274618) supplemented with 1% IsoVitaleX (BD; Lot No. 5246843).
(§10) Broth Microdilution MC Testing (Aerobic Bacteria and Yeast): The broth microdilution assay method employed for the susceptibility testing of aerobic bacteria (excluding N. gonorrhoeae which was evaluated by agar dilution) and yeast essentially followed the procedures described by CLSI (3, 4, 7, 8) and employed automated liquid handlers to conduct serial dilutions and liquid transfers. […]
(§11) Plates were stacked 4 high, covered with a lid on the top plate, placed into plastic bags, and incubated at 35° C. for approximately 24-48 hr for all yeast isolates and 16-24 hr for aerobic bacteria. […] MIC endpoints for the test agents and control compounds were read per CLSI criteria (3, 7).

[4] = tested on: A. baumannii; test: Broth microdilution MIC (Example 5); assay type: cell-based, Acinetobacter baumannii; settings: Acinetobacter baumannii
Protocol: as §1, §2, §3, §4, §5, §6, §7

[5] = tested on: N. gonorrhoeae; test: microbe, parasite or virus in culture; settings: Neisseria gonorrhoeae
[6] = tested on: C. difficile; test: Agar dilution MIC, anaerobes (Example 5); assay type: cell-based, Clostridium difficile; settings: Clostridioides difficile
[7] = tested on: B. fragilis; test: Agar dilution MIC, anaerobes (Example 5); assay type: cell-based; settings: Bacteroides fragilis, ATCC25285
[8] = tested on: P. aeruginosa and A. baumannii; test: MIC summary, P. aeruginosa and A. baumannii (Example 5); assay type: cell-based; settings: all evaluated P. aeruginosa and A. baumannii isolates (Table 4); read-out: MIC values across isolates
Protocol: as §8, §9, §10, §11

[9] = A. baumannii MMX 3373, Sensitive, read-out: MIC
[10] = ATCC49226, N. gonorrhoeae MMX 683 (ATCC 49226), QC
[11] = N. gonorrhoeae MMX 6757, CTX NS
[12] = read-out: MIC values across isolates, N. gonorrhoeae isolates (Table 7)
[13] = ATCC700057, C. difficile MMX 4381 (ATCC 700057), QC, CCI
[14] = C. difficile MMX 8272, ribotype 255, CCI
[15] = C. difficile MMX 8279, ribotype 005, CCR
[16] = C. difficile MMX 8281, ribotype 010, CCR
[17] = NCTC13307, C. difficile MMX 5681 (NCTC 13307), ribotype 012, CCR
[18] = NCTC13336, C. difficile MMX 5680 (NCTC 13336), ribotype 027, CCI METR

Row | Structure (SMILES) | CLSI QC range of MIC [1] | MIC ([2]; E. faecalis MMX 8960) [µg/mL] | MIC ([2]; E. faecalis MMX 8961) [µg/mL] | MIC ([2]; E. faecalis MMX 8962) [µg/mL] | MIC [3] [µg/mL] | MIC [4, 9] [µg/mL] | MIC [5, 10] [µg/mL] | MIC [5, 11] [µg/mL] | MIC ([5]; N. gonorrhoeae MMX 6791, CIPR) [µg/mL] | MIC ([5]; N. gonorrhoeae MMX 6792, CIPR) [µg/mL] | MIC ([5]; N. gonorrhoeae MMX 6793, CIPR) [µg/mL] | MIC [5, 12] [µg/mL] | MIC [6, 13] [µg/mL] | MIC [6, 14] [µg/mL] | MIC [6, 15] [µg/mL] | MIC [6, 16] [µg/mL] | MIC [6, 17] [µg/mL] | MIC [6, 18] [µg/mL] | MIC [7] [µg/mL] | MIC [8] [µg/mL] | further results
1 | CC(C)(O/N=C(\C(=O)N[C@@H]1C(=O)N2C(C(=O)[O-])=C(C[n+]3ccccc3)CS[C@H]12)c1csc(N)n1)C(=O)O [Ceftazidime] | (1-4) μg/mL |  |  |  |  |  |  |  |  |  |  |  |  |  |  |  |  |  |  |  | 
2 | CC(S)C(C)S.[Bi] (centres unmarked) [MB-6, bismuth-2,3-butanedithiol] |  | 0.5 | 0.25 | 0.25 | 0.25 to 1 | 0.5 | 0.06 | 0.06 | 0.12 | 0.12 | 0.25 | 0.06 to 0.25 | 4 | 2 | 2 | 2 | 2 | 2 | 1 | 0.5 to 2 | 
3 | C[C@@H](O)[C@H]1C(=O)N2C(C(=O)O)=C(S[C@@H]3CN[C@H](C(=O)N(C)C)C3)[C@H](C)[C@H]12 [Meropenem] | (0.25-1) μg/mL |  |  |  |  |  |  |  |  |  |  |  |  |  |  |  |  |  |  |  | 
4 | OCC(S)CS.[Bi] (centres unmarked) [MB-2B, bismuth-2,3-dimercaptopropanol] |  | 2 | 2 | 2 | 2 to 4 | 16 | 0.12 | 0.5 | 0.12 | 0.12 | 0.5 | 0.12 to 0.5 | 8 | 8 | 16 | 8 | 8 | 2 | 8 | 2 to 16 | MIC ([4]; A. baumannii MMX 2592, MDR): 16 µg/mL; MIC ([4]; A. baumannii MMX 2593, MDR): 16 µg/mL; MIC ([4]; A. baumannii MMX 3372, MDR): 16 µg/mL; MIC ([4]; NCTC13304, A. baumannii MMX 4651 (NCTC 13304), MDR, OXA-27): 16 µg/mL

Source: patent publication US20240285571A1, “METHODS OF TREATING BONE INFECTIONS” (MICROBION CORPORATION, priority 2020, published 2024)
